The text below walks through data of patent US20100234386A1, “QUINOXALINE DERIVATIVES AS PI3 KINASE INHIBITORS” (priority 2007, published 2010).

In this assay the target is T1, PI3Kα (Homo sapiens, UniProt P42336).
T1 construct: His
Nature of the assay: PI3K Alpha Leadseeker SPA Assay. Format: biochemical. Conditions: in at least one experimental run; read-out: IC50 value against PI3Kα. An excerpt: PI3K Alpha Leadseeker SPA Assay
SPA imaging beads are microspheres containing scintillant which emit light in the red region of the visible spectrum. As a result, these beads are ideally suited to use with a CCD imager such as the Viewlux. The Leadseeker beads used in this system are polystyrene beads that have been coupled with polyethyleneimine. When added to the assay mixture, the beads absorb both the substrate (PIP2) and product (PIP3). Adsorbed P^33-PIP3 will cause an increase in signal, measured as ADUs (analog to digital units). This protocol details the use of the PEI-PS Leadseeker beads for assays using His-p110/p85 PI3K alpha.
The compounds are serially diluted (3-fold in 100% DMSO) across the plate from column 1 to column 12 and column 13 to column 24 and leave column 6 and 18 containing only DMSO to yield 11 concentrations for each test compound.
The assay buffer contains MOPS (pH 6.5), CHAPS, and DTT. PI3K alpha and PIP2 (L-alpha-D-myo-Phosphatidylinositol 4,5-bisphosphate[PI(4,5)P2]3-O-phospho linked, D(+)-sn-1,2-di-O-octanoylglyceryl, CellSignals # 901) are mixed and incubated in the plate with compound for 30 min prior to starting the reaction with the addition of P^33-ATP and MgCl2 (reagents added using Zoom). […] PEI-PS Leadseeker beads in PBS/EDTA/CHAPS are added (by Multidrop) to quench the reaction, and the plates are allowed to incubate for at least one hour (typically overnight) before centrifugation. The signal is determined using a Viewlux detector and is then imported into curve fitting software (Activity Base) for construction of concentration response curves. The percent inhibition of activity is calculated relative to high controls (C1, 0.1 μl DMSO in column 6, rows A-P)) and low controls (C2, 5 μl of 40 uM PIP2 in buffer in column 18, rows A-P) using, 100*(1−(U1−C2)/(C1−C2)). The concentration of test compound yielding 50% inhibition is determined using the equation, y=((Vmax*x)/(K+x))+Y2, where “K” was equal to the […]. The IC50 values are converted to pIC50 values, i.e., −log IC50 in Molar concentration.

SMILES strings stand for the structures.

In general, IC50 refers to the concentration that gives 50% inhibition.

T1 sequence (P42336 whole entry, species assumed): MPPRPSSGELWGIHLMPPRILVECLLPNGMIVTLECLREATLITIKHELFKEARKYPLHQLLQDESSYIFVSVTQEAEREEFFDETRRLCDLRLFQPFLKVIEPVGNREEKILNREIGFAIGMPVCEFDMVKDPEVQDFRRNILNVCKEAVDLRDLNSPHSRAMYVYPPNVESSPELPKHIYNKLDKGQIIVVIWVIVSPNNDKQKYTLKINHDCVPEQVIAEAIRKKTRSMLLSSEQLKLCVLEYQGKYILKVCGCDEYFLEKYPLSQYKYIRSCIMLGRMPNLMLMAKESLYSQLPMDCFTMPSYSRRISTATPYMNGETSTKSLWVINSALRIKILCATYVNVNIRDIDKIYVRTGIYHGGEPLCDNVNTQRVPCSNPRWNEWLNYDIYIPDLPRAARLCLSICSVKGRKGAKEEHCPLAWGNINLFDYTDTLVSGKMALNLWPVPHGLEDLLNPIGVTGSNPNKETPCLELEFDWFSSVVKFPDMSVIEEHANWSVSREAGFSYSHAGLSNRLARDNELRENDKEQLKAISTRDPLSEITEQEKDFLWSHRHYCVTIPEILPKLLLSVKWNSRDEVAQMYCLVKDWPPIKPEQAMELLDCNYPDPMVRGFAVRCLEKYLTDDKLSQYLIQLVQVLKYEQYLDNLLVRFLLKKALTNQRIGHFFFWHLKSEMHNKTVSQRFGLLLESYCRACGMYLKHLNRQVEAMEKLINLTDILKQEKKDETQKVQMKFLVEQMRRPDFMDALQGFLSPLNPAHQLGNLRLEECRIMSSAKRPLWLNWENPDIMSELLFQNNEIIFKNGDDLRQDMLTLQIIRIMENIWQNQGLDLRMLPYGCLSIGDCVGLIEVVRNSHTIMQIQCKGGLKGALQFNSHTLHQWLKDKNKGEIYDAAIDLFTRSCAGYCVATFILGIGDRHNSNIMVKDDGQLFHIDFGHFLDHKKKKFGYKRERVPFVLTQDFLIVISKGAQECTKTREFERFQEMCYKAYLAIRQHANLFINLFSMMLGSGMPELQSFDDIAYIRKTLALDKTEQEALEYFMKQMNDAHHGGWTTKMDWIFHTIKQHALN
T1 sequence (P27986 whole entry partner, species assumed): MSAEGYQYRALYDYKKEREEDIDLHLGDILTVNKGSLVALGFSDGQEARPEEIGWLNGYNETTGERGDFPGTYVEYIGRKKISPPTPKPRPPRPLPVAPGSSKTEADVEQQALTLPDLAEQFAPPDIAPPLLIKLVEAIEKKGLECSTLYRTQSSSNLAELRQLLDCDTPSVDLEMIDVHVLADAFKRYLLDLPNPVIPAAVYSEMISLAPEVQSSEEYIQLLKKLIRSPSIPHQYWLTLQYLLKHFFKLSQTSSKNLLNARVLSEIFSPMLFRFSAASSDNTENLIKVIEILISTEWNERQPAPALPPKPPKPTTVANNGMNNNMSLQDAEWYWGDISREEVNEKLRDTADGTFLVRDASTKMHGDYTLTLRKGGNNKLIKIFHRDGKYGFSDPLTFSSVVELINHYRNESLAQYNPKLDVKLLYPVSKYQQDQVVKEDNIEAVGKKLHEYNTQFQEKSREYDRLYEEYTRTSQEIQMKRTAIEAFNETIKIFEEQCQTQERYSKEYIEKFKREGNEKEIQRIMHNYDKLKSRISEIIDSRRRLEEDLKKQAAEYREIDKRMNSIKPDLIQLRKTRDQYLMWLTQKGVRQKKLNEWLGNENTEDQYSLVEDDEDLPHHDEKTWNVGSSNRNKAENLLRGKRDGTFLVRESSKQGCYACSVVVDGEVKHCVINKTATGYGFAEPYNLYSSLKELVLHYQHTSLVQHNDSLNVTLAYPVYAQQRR

With `c1cc2ncc(N3CCOCC3)nc2cc1-c1cnc2[nH]ncc2c1` [Example 1, 2-(4-morpholinyl)-7-(1H-pyrazolo[3,4-b]pyridin-5-yl)quinoxaline], the IC50 is 5 nM.
With `COc1ccc(-c2ccc3ncc(N4CCOCC4)nc3c2)cn1` [Example 2] the figure was 100 nM; with `c1cc2cc(-c3ccc4ncc(N5CCOCC5)nc4c3)cnc2[nH]1` [Example 4], 50 nM; with `CCNc1cnc2ccc(-c3cnc(N)c(S(=O)(=O)N(C)C)c3)cc2n1` [Example 19], 8 nM.
With `NS(=O)(=O)c1cncc(-c2ccc3ncc(-c4ccncc4)nc3c2)c1` [Example 70], the 50% inhibitory concentration (IC50) worked out at 200 nM.
